Measurements published in patent publication US5442111A, “3,5-di-tetriary-4-butyl-4-hydroxyphenyloxy- or tioalkylene N-hydroxyamides, N-hydroxythioamides, N-hydroxyureas, and N-hydroxythioureas as 5-lipoxygenase inhibitors” (Warner-Lambert Company, priority 1991, dated 1995).

Tested on: 5-lipoxygenase
Experiment: ARBL whole cell 5-lipoxygenase assay (LTB4 formation in RBL-1 cells stimulated with calcium ionophore A23187, RIA)
Type: cell-based
Conditions: @ 10^-6 (concentration unit not given); rat RBL-1 whole cells, A23187 5 μM, 10 min preincubation
Protocol: ARBL WHOLE CELL 5-LIPOXYGENASE ASSAY
The rat basophilic leukemia cell line (RBL-1) was obtained from the American Type Culture Collection (Rockville, Md.).
A radioimmunoassay (RIA) kit of LTB was obtained from Amersham (Arlington Heights, Ill.) and Seragen (Boston, Mass.), respectively.
RBL-1 cells are grown in suspension culture in Eagle's minimum essential medium supplemented with 12% fetal bovine serum at 37° C. in an incubator supplied with air-5% carbon dioxide. Cells are harvested by centrifugation. They are washed with cold phosphate buffered saline pH 7.4 (PBS; NaCl, 7.1 g; NaHPO, 1.15 g; KHPO, 0.2 g; and KCl, 0.2 g/l). Cells are finally suspended in PBS containing 1.0 mM calcium at a density of […] cells/ml. Cells are incubated with and without test agent (in DMSO) (1% DMSO is without effect on arachidonic acid metabolism) for ten minutes at room temperature. Calcium ionophore A23187 (5 μM) is added and cells are incubated for seven minutes at 37° C. The reaction is stopped by chilling the tubes on ice for ten minutes. Cells are separated by centrifugation and the supernatant is stored at -20°. Aliquots (100 μl) are analyzed for LTB using the radioimmunoassay kit as provided by the supplier.
The following table contains biochemical data obtained from this whole cell assay as a percentage of inhibition.

Row | SMILES | ARBL @ 10^-6, % inhibition for LTB4
1 | CNC(=S)N(O)C(C)CSc1cc(C(C)(C)C)c(O)c(C(C)(C)C)c1 (centres unmarked) [Example 1, N-[2-[[3,5-Bis(1,1-dimethylethyl)-4-hydroxyphenyl]thio]-1-methylethyl]-N-hydroxy-N'-methyl Thiourea] | 100%
2 | CC(CSc1cc(C(C)(C)C)c(O)c(C(C)(C)C)c1)N(O)C(N)=O (centres unmarked) [Example 2, N-[2-[[3,5-Bis(1,1-dimethylethyl)-4-hydroxyphenyl]thio]-1-methylethyl]-N-hydroxy Urea] | 100%
